Where two headings read alike, the source gives them in different places. One block for each compound: values may come before it.
Tests used:
[1] = rats, 1 hour; cited from earlier work
[2] = cited from earlier work
[3] = cited from earlier work; remark: listed apart in the source
[4] = Iodine vapor detection with iodine sensitive paper disc in vial lid (Example 4); conditions: acetate buffer; cyclodextrin 50 mM
Protocol: Solutions of these cyclodextrins were prepared in acetate buffer or propylene glycol, both containing molecular iodine as follows. Cyclodextrins were weighed and added to vials. Saturated solutions of molecular iodine (Alfa Aesar 14248 Lot 104Z003) were then prepared in either: (a) […] acetate buffer (pH 4.5); or (b) propylene glycol.
Aliquots of each solution of the different cyclodextrins were added to vials to a final cyclodextrin concentration of 50 mM. […] The screw-top lid of each vial was fitted with an iodine sensitive paper disc (Fluka #37215, Lot SZBF1310V) that fit tightly in the lid so the paper was exposed to the atmosphere in the vial which would allow the paper to react with molecular iodine that was in the vapor phase.
At time points of: one (1) hour; six (6) hours; and twenty-four (24) hours, the color of the indicator paper on the inside of the screw-top lids were examined and photographed.

[5] = Viscosity with Brookfield DV2T viscometer (Example 7); format: physicochemical; conditions: for viscosity: extrapolated to zero shear
Protocol: Viscosity was measured using a Brookfield DV2T viscometer which allowed for the precise control of the temperature at which the viscosity was measured. The Brookfield DV2T was programmed to measured viscosity at different shear rates by systematically ramping the spindle (CP-40 or CP-52) speed up and then down as shown in FIG. 4A for propylene glycol at 25° C.
The viscosity values were fitted to a curve and extrapolated to the zero shear value to arrive at a final estimate for viscosity.
One series of samples was prepared without molecular iodine and a second series was prepared that contained 800 ppm molecular iodine. The viscosity of these samples was measured as described above using an up-down rate ramp program. The results were fitted to an Ostwald model, i.e. stress versus shear rate curve fit, and the consistency constant was reported as the viscosity.

[6] = Potassium iodide starch paper coloration versus time, vapor pressure of molecular iodine (Example 5); conditions: cyclodextrin 50 mM; for reduction in vapor pressure of molecular iodine in the acetate buffer (ranking): 0.1M acetate buffer pH 4.5; for ability to reduce the vapor pressure of molecular iodine in an aqueous environment (conclusion): acetate buffer
Excerpt: Alpha cyclodextrin (cat. number C4642, Sigma Life Sciences, Lot 2X SLBK4630V, CAS 10016-20-3), beta cyclodextrin (cat. number C4767, Sigma Life Sciences, Lot MKBV2085V, CAS 7585-39-9), gamma cyclodextrin (cat. number C4892, Sigma Life Sciences, Lot SLBL4156V, CAS 17465-86-0), methyl beta cyclodextri, (cat. number C4555, Sigma Life Sciences, Lot WXBC0745V, CAS 128446-36-6) and 2-hydroxypropyl-beta-cyclodextrin (cat. number H107, Sigma Life Sciences, Lot WXBC0083V, CAS 128446-35-5) were weighed into vials.
Aliquots of saturated molecular iodine in either propylene glycol or 0.1M acetate buffer (pH 4.5) were added to the vials to yield a final cyclodextrin concentration of 50 mM. The samples were lightly vortexed to dissolve the cyclodextrins. Control vials were prepared consisting of saturated iodine in either propylene glycol or 0.1M acetate buffer pH 4.5.
Analytical potassium iodide starch paper (Fluka #37215, Lot SZBF1310V) was cut into circle and placed inside the screw-top lid of the vials in a manner that held the paper in place once the lid was screwed onto the vial.
Provided in FIGS. 2A-2L are pictures of the starch paper taken at different time points to document the color of the starch paper versus time of exposure to the atmosphere inside of the vial. The operating assumption was that the color of the starch paper would be proportional to the time of exposure to the concentration of molecular iodine in the atmosphere inside of the vial.
The concentration of molecular iodine in the atmosphere inside of the vial is proportional to the vapor pressure of dissolved molecular iodine in the liquid phase.

Compound: II [Molecular iodine, molecular iodine]
lowest lethal atmospheric concentration [1]: 80 ppm
maximum iodine that can build up in a closed container ([2]; 25° C., standard atmospheric pressure): ≤ 394 ppm
vapor pressure ([2]; 25° C.): 0.3 mm
vapor pressure ([2]; 38.7° C.): 1 mm
permissible exposure limit ([3]; NIOSH, OSHA): 0.1 ppm
concentration with severe eye irritation ([3]; after 2 minutes): 1.63 ppm
concentration at which humans can work undisturbed ([3]; iodine vapor, inhalation): 0.1 ppm
concentration at which humans work with difficulty ([3]; iodine vapor, inhalation): 0.15-0.2 ppm
concentration that humans cannot tolerate ([3]; iodine vapor, inhalation): ≥ 0.3 ppm
level at which odor is detected ([3]; iodine vapor): about 0.9 ppm

Compound: hydroxypropyl-β-cyclodextrin [hyroxypropyl-β-cyclodextrin]
color of iodine indicator paper / iodine vapor at 24 hours [4]: clearly detected
effect on vapor pressure of molecular iodine in an aqueous environment [4]: reduces the vapor pressure of molecular iodine
reduction in vapor pressure of molecular iodine in the acetate buffer (ranking) [6]: greatest reduction in vapor pressure
ability to reduce the vapor pressure of molecular iodine in an aqueous environment (conclusion) [6]: most effective

Compound: methyl-β-cyclodextrin
effect on vapor pressure of molecular iodine in an aqueous environment [4]: reduces the vapor pressure of molecular iodine
reduction in vapor pressure of molecular iodine in the acetate buffer (ranking) [6]: greatest reduction in vapor pressure
ability to reduce the vapor pressure of molecular iodine in an aqueous environment (conclusion) [6]: most effective

Other lines, results leading:

color of iodine indicator paper / iodine vapor at 6 hours [4]: clearly detected
color of iodine indicator paper / iodine vapor at 24 hours [4]: deeply stained
Compound: OC[C@H]1O[C@@H]2O[C@H]3[C@H](O)[C@@H](O)[C@@H](O[C@H]4[C@H](O)[C@@H](O)[C@@H](O[C@H]5[C@H](O)[C@@H](O)[C@@H](O[C@H]6[C@H](O)[C@@H](O)[C@@H](O[C@H]7[C@H](O)[C@@H](O)[C@@H](O[C@H]8[C@H](O)[C@@H](O)[C@@H](O[C@H]9[C@H](O)[C@@H](O)[C@@H](O[C@H]1[C@H](O)[C@H]2O)O[C@@H]9CO)O[C@@H]8CO)O[C@@H]7CO)O[C@@H]6CO)O[C@@H]5CO)O[C@@H]4CO)O[C@@H]3CO [gamma cyclodextrin, γ-cyclodextrin]

viscosity ([5]; 25° C.): 59 cP
viscosity ([5]; 33° C.): 95 cP
flow behaviour ([5]; viscosity versus shear): behaves like a Newtonian fluid
Compound: CC(O)CO (stereo not drawn) [propylene glycol]

color of iodine indicator paper / iodine vapor at 6 hours [4]: clearly detected
color of iodine indicator paper / iodine vapor at 24 hours [4]: deeply stained
Compound: OC[C@H]1O[C@@H]2O[C@H]3[C@H](O)[C@@H](O)[C@@H](O[C@H]4[C@H](O)[C@@H](O)[C@@H](O[C@H]5[C@H](O)[C@@H](O)[C@@H](O[C@H]6[C@H](O)[C@@H](O)[C@@H](O[C@H]7[C@H](O)[C@@H](O)[C@@H](O[C@H]8[C@H](O)[C@@H](O)[C@@H](O[C@H]1[C@H](O)[C@H]2O)O[C@@H]8CO)O[C@@H]7CO)O[C@@H]6CO)O[C@@H]5CO)O[C@@H]4CO)O[C@@H]3CO [β-cyclodextrin]

— patent publication US11596648B2, “Emollient topical disinfectants” (priority 2016, dated 2023)
